In US20250206761A1, “HALOINDOLE MACROCYCLIC COMPOUNDS FOR THE TREATMENT OF CANCER” (Hoffmann-La Roche Inc., priority 2022, published 2025):

Details: from CO[C@@H](C)c1ncc(N2CCN(C(=O)OCc3ccccc3)CC2)cc1-c1c(CC(C)(C)CO)c2cc(-c3csc(C[C@H](NC(=O)OC(C)(C)C)C(=O)N4CCC[C@@H](C(=O)O)N4)n3)c(F)cc2n1CC(F)(F)F; ester bond; EDCI/HOBt/DIEA; DCM; 9.63 mM; 15.0 °C; 12.0 h

For `CO[C@@H](C)c1ncc(N2CCN(C(=O)OCc3ccccc3)CC2)cc1-c1c2c3cc(c(F)cc3n1CC(F)(F)F)-c1csc(n1)C[C@H](NC(=O)OC(C)(C)C)C(=O)N1CCC[C@H](N1)C(=O)OCC(C)(C)C2`, the ring closure, yield of all isomers was 73.4%.
